# Source: PubChem BioAssay AID1259427 (Fisher Drug Discovery Resource Center, 2018)
# The source made the active and inactive calls.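 Rule for the calls: active = EC50 at or below a set limit, with no effect in the paired counter-screen assay; inactive = the rest.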
# Target: Aedes aegypti neuropeptide Y-like receptor 7 (NPYLR7)
# Assay: NPYLR7 activation potency in cells – cell-based, Aedes aegypti, hit validation, mosquito biting behavior, confirmation (AID 1259427);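 note: potency of agonists that activate the receptor and raise the calcium signal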
# Conditions: HEK293T NPYLR7/Galpha15/GCaMP6s, calcium fluorescence
row,SMILES,EC50
1,Cc1nc2ncccc2cc1C(=O)N1CCC2(CCNC(=O)CC2)CC1,> 20 µM (inactive)
2,CCOc1cc(C=O)c(O)c(C=O)c1,inactive
3,COc1cc(C=C(C#N)C(=O)OC(C)C)cc(Cl)c1O,> 20 µM (inactive)
4,C=CCNc1ccc2c3c(cccc13)C(=O)N(c1ccccc1)C2=O,inactive
5,Cc1ccc2nc(Cn3cnc4c(Cl)cc(Cl)cc4c3=O)cc(=O)n2c1,> 20 µM (inactive)
6,O=C(O)CCn1c(O)c(C=C2C=Nc3ccccc32)sc1=S,> 20 µM (inactive)
7,COc1ccc(C(=O)C=Cc2cc(OC)c(O)c(OC)c2)cc1F,> 20 µM (inactive)
8,COc1ccc(S(=O)(=O)NCC2CCCN(C(=O)CSc3ccccc3)C2)cc1 (configuration not stated),11.3 µM
9,Cc1nn(C)c(Cl)c1/C=C1/CCCc2c1nc1ccccc1c2C(=O)O,19.2 µM
10,O=C(O)c1ccccc1-c1c2cc(Br)c(=O)cc-2oc2[c]([Hg])c(O)c(Br)cc12,< 0.039 µM (inactive)
11,Cc1cc(O)c(CN2CCCCC2)c2c1C(=O)/C(=C/c1cc3ccccc3o1)O2,> 20 µM (inactive)
12,CC1C(=O)c2cccc3c(=O)n(-c4ccccc4)c(O)c(c23)C1=O (configuration not stated),5.77 µM
13,Cc1cc(O)c(CN2CCCC2)c2c1C(=O)/C(=C/c1cc3ccccc3o1)O2,> 20 µM (inactive)
14,COc1cc(C=C2C=c3c(O)cccc3=C2O)cc(Cl)c1O,inactive
15,CCOC(=O)c1cc(O)c(C(=O)OCC)s1,> 20 µM (inactive)
16,Nc1ccc2c3c(cccc13)C(=O)NC2=O,inactive
17,C=CCN1C=CC(=CC=C(C#N)C#N)C=C1,inactive
18,Oc1ccc(-c2onc3ccc(Cl)cc23)cc1,> 20 µM (inactive)
19,O=[N+]([O-])c1cc(S(=O)(=O)Nc2cc(Cl)ccc2F)ccc1F,> 20 µM (inactive)
20,CC(C)COCC(O)CN(Cc1cccn1C)CC1CCCO1 (configuration not stated),> 20 µM (inactive)
21,CC(C)NCC(O)c1ccc(O)c(O)c1 (configuration not stated),> 20 µM (inactive)
22,NC(=S)N/N=c1\oc2cc(O)ccc2cc1-c1nc2ccccc2[nH]1,inactive
23,CCN=c1cc2oc3cc(NCC)c(C)cc3c(-c3ccccc3C(=O)OCC)c-2cc1C,inactive
24,CCNC(=O)[C@H]1O[C@@H](n2cnc3c(N)ncnc32)C(O)[C@H]1O (some centres not stated),inactive
25,CCOc1cc(/C=C2\C(=N)N3N=CSC3=NC2=O)cc(Br)c1OC(=O)c1ccccc1,inactive
26,COc1cccc(CN2C(=O)c3cccc(N)c3C2=O)c1,> 20 µM (inactive)

row,SMILES,EC50
1,Cc1ccc(Nc2nc(Nc3cccc(F)c3)nc3nccnc23)c(C)c1,> 20 µM (inactive)
2,CN(Cc1ccccc1)c1cc(Oc2cccc(Cl)c2)ncn1,> 20 µM (inactive)
3,CCOC(=O)c1nc2ccccc2nc1N1CCN(C(=O)N2CCOCC2)CC1,> 20 µM (inactive)
4,NS(=O)(=O)c1ccc(NC(NC(=O)c2ccco2)C(=O)c2ccc(Cl)cc2)cc1 (configuration not stated),> 20 µM (inactive)
5,COc1cc(C=C2N=C(c3ccc4c(c3)OCO4)OC2=O)cc2c1OCCO2,> 20 µM (inactive)
6,CNC(=O)NC(=O)CCN1CC(c2ccccc2Cl)c2c([nH]c3ccccc23)C1C (configuration not stated),> 20 µM (inactive)
7,O=C1c2ccccc2-c2nn(CN3CCN(c4ccccc4)CC3)c3cccc1c23,> 20 µM (inactive)
8,Cc1cc2c(c(-c3ccc4c(cnn4C)c3)c1)OC(CN)C2 (configuration not stated),> 20 µM (inactive)
9,CCc1nc(N=C(N)N)nc2cc(C)ccc12,7.66 µM
10,COc1ccc2c(C)nc(N=C(N)N)nc2c1,19.6 µM
11,N#CC1C(=N)Oc2cc(O)ccc2C1c1ccccc1I (configuration not stated),inactive
12,CC1(C)CC(c2[nH]cnc2-c2ccccc2)CCO1 (configuration not stated),> 20 µM (inactive)
13,O=C(CNCc1ccccc1)N1CC(=O)N(c2cccc(Cl)c2)C1,> 20 µM (inactive)
14,COc1cc(C=CC(=O)c2ccc3c(c2)OCCO3)cc(Br)c1O,inactive
15,Cc1oc(-c2cccc(NC(=O)CC(C)C)c2)nc1CNC(=O)Cc1cc(F)cc(F)c1,> 20 µM (inactive)
16,CCCCCN=C(N)NN=Cc1c[nH]c2ccc(OC)cc12,7.37 µM
17,CCN1/C(=C/C2=CC(=O)CC(C)(C)C2)Sc2ccccc21,inactive
18,CCOC(=O)N1CCN(c2ccc(/C=C(\C#N)c3nc4ccccc4n3C)o2)CC1,inactive
19,O=C(NCCSc1ccc(Cl)cc1)c1ccc2c(=O)n3c(nc2c1)CCC3,> 20 µM (inactive)
20,C=C(C)Cn1c(C(=O)N2CCN(C(=O)CCC(=O)OCC)C(C)C2)cc2ccoc21 (configuration not stated),6.05 µM
21,CCN1CCc2c(sc(NC(=O)C3=COCCO3)c2-c2nc3ccccc3s2)C1,inactive
22,N#C/C(=C/c1ccc(N2CCCCC2)o1)c1cccc(F)c1,> 20 µM (inactive)
23,O=[N+]([O-])c1c[n+]([O-])n(-c2cccc(Cl)c2)n1,> 20 µM (inactive)
24,CC1CN(c2ccc(/C=C(\C#N)c3nc4ccccc4[nH]3)o2)CC(C)O1 (configuration not stated),> 20 µM (inactive)
25,Cc1ccc(N2C(=O)NC(=O)/C(=C\c3cccs3)C2=O)cc1,> 20 µM (inactive)
26,N#C/C(=C\c1ccc(O)c(O)c1)C(=O)NCCCc1ccccc1,17.4 µM

row,SMILES,EC50
1,Nc1ccc2c3c(cccc13)C(=O)N(c1ccccc1)C2=O,inactive
2,COc1ccc(NC[C@@H]2C=C(C)[C@H](Cc3nnc(C)o3)C[C@H]2C(C)C)cn1,> 20 µM (inactive)
3,Cc1[nH]c(/C=C2\C(=O)Nc3ccccc32)c(C)c1CCC(=O)O,< 0.039 µM (inactive)
4,COc1ccc2c(c1)OCC(C=C(C#N)S(=O)(=O)c1ccc(Br)cc1)=C2,> 20 µM (inactive)
5,CCC(CO)[n+]1c(C)cc(C=C2Sc3ccccc3N2Cc2ccccc2)cc1C (configuration not stated),9.8 µM
6,Nc1ncnc2c1ncn2[C@@H]1O[C@H](CO)[C@@H](O)[C@H]1O,inactive
7,O=C(CC(c1cccc([N+](=O)[O-])c1)c1c[nH]c2ccccc12)NC1CC1 (configuration not stated),> 20 µM (inactive)
8,O=C1NC(=O)C2=Cc3ccc(O)cc3OC2(O)N1 (configuration not stated),inactive
9,CCN(CC)CC[n+]1c(C)cc(C=C2Sc3ccccc3N2C)cc1C,> 20 µM (inactive)
10,OCCN(CCO)c1nc(N2CCCCC2)c2nc(N(CCO)CCO)nc(N3CCCCC3)c2n1,inactive
11,CCCC[n+]1c(C)cc(C=C2Sc3ccccc3N2C)cc1C,> 20 µM (inactive)
12,COc1ccc2nc(C=Cc3cc(Br)c(O)c(OC)c3)sc2c1,> 20 µM (inactive)
13,Cn1c(/C(C#N)=C/c2ccc(N3CCOCC3)o2)nc2ccccc21,14.9 µM
14,COCCN=Cc1cc(I)cc(I)c1O,> 20 µM (inactive)
15,O=C1NC(=NS(=O)(=O)c2ccccc2)SC1=Cc1cc([N+](=O)[O-])ccc1O,> 20 µM (inactive)
16,CS(=O)(=O)c1ccc(-c2cccc3c2OC(CNC(=O)c2cc[n+]([O-])cc2)C3)cc1 (configuration not stated),17.1 µM
17,O=P1(Nc2cc(C(F)(F)F)ccc2Cl)C=C(c2ccccc2)OC(c2ccccc2)=C1,> 20 µM (inactive)
18,CCOC(=O)c1c(-c2ccccc2)csc1N=Cc1nc(-c2ccco2)oc1O,> 20 µM (inactive)
19,N#Cc1c(N)nc2c(c1N)C(Sc1ccccc1)c1ccc(O)cc1O2 (configuration not stated),< 0.039 µM (inactive)
20,CCOC(=O)N1CCN(c2ccc(/C=C(\C#N)c3nc4ccccc4[nH]3)o2)CC1,> 20 µM (inactive)
21,CC(C)N=c1c([N+](=O)[O-])nn(-c2ccc(Cl)cc2)n1O,> 20 µM (inactive)
22,O[C@@H]1CN(Cc2ccncc2Cl)CC[C@H]1c1ccc2c(c1)OCO2,> 20 µM (inactive)
23,COc1ccc(-c2cccc(-c3ccc(NC(=O)c4oc5ccccc5c4C)cc3)n2)cc1,> 20 µM (inactive)
24,CCCS(=O)(=O)N1CCN=C1SCc1ccccc1C,> 20 µM (inactive)
25,COc1cc(OC)c(OC)cc1/C=C1/SC(=S)N(CC(=O)O)C1=O,inactive
26,O=c1cc(C(F)(F)F)c2ccc(O)cc2o1,inactive

row,SMILES,EC50
1,CNC(=O)c1cnc(/C=C/c2csc(-c3ccsc3)n2)[nH]c1=O,> 20 µM (inactive)
2,NCCNc1ccc2c3c(cccc13)C(=O)N(c1ccc(Cl)cc1)C2=O,inactive
3,CCOC(=O)C1=C(C)NC(C)=C(C(=O)OCC)C1c1cc(Cl)ccc1OC(F)F,> 20 µM (inactive)
4,COCCOc1ccc(NC(=O)N(C)C(C)C2(C)CC2)cn1 (configuration not stated),> 20 µM (inactive)
5,Cc1ccc(-c2nc3nc(N)n(C)c(=O)c3[nH]c2=O)cc1,> 20 µM (inactive)
6,COc1ccc(OC)c(CCNc2nc3cnc(-c4ccc5c(c4)OCO5)cc3n2C)c1,8.34 µM
7,CN(C)c1ccc(/C=C2/SC(=S)N(CC(=O)O)C2=O)cc1Br,inactive
8,O=C1OC2(c3cc(Br)c(O)cc3Oc3c2cc(Br)c(O)[c]3[Hg])c2ccccc21 (configuration not stated),< 0.039 µM (inactive)
9,N#CC(C#N)=C1C=C2C=C(N3CCCC3)CCC2CC1 (configuration not stated),< 0.039 µM (inactive)
10,CCC1CN(C(=O)c2cc(C(C)C)on2)CCC(=O)N1Cc1ccccc1 (configuration not stated),> 20 µM (inactive)
11,CCOCCCN1C(=O)C(=Cc2ccccc2O)NC1=S,inactive
12,Cc1ccc(CN(Cc2ccc(F)cc2)C(=O)CNCCN2CCOCC2)s1,> 20 µM (inactive)
13,O=C1Nc2ccccc2C1C=NN1CCOCC1 (configuration not stated),> 20 µM (inactive)
14,O=C(c1cnn(-c2ccccc2)n1)N1CCCC(COCc2ccccc2)C1 (configuration not stated),inactive
15,COC(=O)c1cc(N)c(/C=C/c2cccs2)s1,inactive
16,COc1ccccc1N=c1oc2cc(O)ccc2cc1-c1nc2ccccc2[nH]1,inactive
17,O=c1oc2c(CN3CCN(CCO)CC3)c(O)ccc2cc1-c1nc2ccccc2s1,< 0.039 µM (inactive)
18,Cc1ccc(CN(C(=O)c2cc3cc(Cl)ccc3[nH]2)C(C)C)o1,> 20 µM (inactive)
19,CC(C)CN1C(=O)C(=Cc2c(N3CCN(CCO)CC3)nc3ccccn3c2=O)SC1=S,> 20 µM (inactive)
20,C=CCN1C(=O)/C(=C\c2ccc(O)cc2)SC1=S,> 20 µM (inactive)
21,O=c1[nH]c(SCCO)nc2sc3c(c12)CCCC3,> 20 µM (inactive)
22,COc1cc(OC)cc(C(=O)N2CCN(C(C(=O)Nc3ccc(NC(C)=O)cc3)C3CCCC3)CC2)c1 (configuration not stated),> 20 µM (inactive)
23,O=C(c1snc2c(=O)n(Cc3ccccc3)c(=O)[nH]c12)N1CCSCC1,> 20 µM (inactive)
24,Cc1csc(-c2cc3ccc(O)c(CN4CCN(CCO)CC4)c3oc2=O)n1,< 0.039 µM (inactive)
